Results on 31 compounds are retold here after patent US10988459B2 (priority 2015, dated 2021).

The experiment concerns the target human RIP1 kinase domain (2-375) (Homo sapiens (Human), UniProt Q13546). Kind of experiment: biochemical. Format: biochemical. An outline of the steps:
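Ki^app comes from Morrison tight-binding fits of fractional activity versus compound concentration. Activity was read as ADP production, via tracer displacement lowering fluorescence polarization (633 nm laser). Conditions: 2 h, 50 nM insect-cell-expressed enzyme, 50 uM ATP, 30 mM MgCl2, 1 mM DTT, 0.5% DMSO, pH 7.5 Hepes.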

Setting [1] is: tight-binding apparent inhibition constant, human RIP1 kinase domain (2-375) 50 nM, 50 uM ATP, 2 hours, read-out: Ki.
Where [2] appears, read: human RIP1 kinase domain (2-375), 50 uM ATP, 2 hours incubation, Transcreener ADP assay, read-out: RIP1 Ki.
Setting [3] is: human RIP1 kinase domain (2-375), Transcreener ADP assay, 50 uM ATP, 2 hours incubation, read-out: RIP1 Ki.
Setting [4] is: Table 5, apparent Ki (Morrison tight-binding fit), 50 nM RIP1 kinase domain, 50 uM ATP, 2 hours incubation, read-out: Ki.

Read-outs that look alike come from different tables or passages of the source.

Chain of human RIP1 kinase domain (2-375) (Q13546 2-375): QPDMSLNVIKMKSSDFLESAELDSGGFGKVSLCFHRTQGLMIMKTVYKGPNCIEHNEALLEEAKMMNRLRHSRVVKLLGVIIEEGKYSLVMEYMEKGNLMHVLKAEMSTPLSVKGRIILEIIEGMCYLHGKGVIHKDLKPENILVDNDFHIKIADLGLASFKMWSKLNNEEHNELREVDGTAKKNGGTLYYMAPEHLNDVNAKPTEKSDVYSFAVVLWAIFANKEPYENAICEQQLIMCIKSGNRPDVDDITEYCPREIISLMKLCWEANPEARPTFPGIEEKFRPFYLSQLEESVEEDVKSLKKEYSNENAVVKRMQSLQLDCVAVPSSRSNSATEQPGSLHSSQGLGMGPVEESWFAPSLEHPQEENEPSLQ

For `Cc1cc2n(n1)CC[C@H](NC(=O)c1ncn(Cc3ccccc3)n1)C(=O)N2` [Example 586], the Ki under setting [1] stood at 0.063 µM.
In the case of `CCOC(=O)[C@H]1[C@H]2CC[C@H](NC(=O)c3ncn(Cc4ccccc4)n3)C(=O)N(C)[C@H]21` (single isomer, unassigned) [Example 132], the Ki under setting [2] was 5 µM.
Regarding `CCn1ncc2cnc(C(=O)N[C@H]3COc4ccccc4N(C)C3=O)cc21` [Example 202, (S)-1-ethyl-N-(5-methyl-4-oxo-2,3,4,5-tetrahydrobenzo[b][1,4]oxazepin-3-yl)-1H-pyrazolo[4,3-c]pyridine-6-carboxamide], under setting [2], the Ki is 0.0576 µM.
Turning to `CN1C(=O)[C@@H](NC(=O)c2ncc3c(n2)C2(CCCC2)OC3)COc2ccccc21` [Example 482], the Ki under setting [1] worked out at 0.0057 µM.
On to `Cc1cc(F)c2c(c1)OC[C@H](NC(=O)c1nc3n(n1)[C@@H](C(F)(F)F)CCC3)C(=O)N2` (single isomer, unassigned) [Example 427], for which the Ki under setting [1] turned out to be 0.21 µM.
Consider `Cc1cn2c(n1)N(C)C(=O)[C@H](NC(=O)c1ncn(Cc3ccccc3F)n1)CC2` [Example 659, 1-[(2-fluorophenyl)methyl]-N-(7R)-2,9-dimethyl-8-oxo-6,7-dihydro-5H-imidazo[1,2-a][1,3]diazepin-7-yl-1,2,4-triazole-3-carboxamide], for which the Ki under setting [1] stood at 0.035 µM.
`COCC1(C)OCc2cnc(C(=O)N[C@H]3COc4ccccc4N(C)C3=O)cc21` (stereo partly drawn) [Example 231, 1-(methoxymethyl)-1-methyl-N—((S)-5-methyl-4-oxo-2,3,4,5-tetrahydrobenzo[b][1,4]oxazepin-3-yl)-1,3-dihydrofuro[3,4-c]pyridine-6-carboxamide]: the Ki under setting [3] is 0.511 µM.
In the case of `CN1C(=O)[C@@H](NC(=O)c2ncn(CC3CCCC3)n2)CCn2nc(C3CC3)cc21` [Example 160, (S)-1-(cyclopentylmethyl)-N-(2-cyclopropyl-4-methyl-5-oxo-5,6,7,8-tetrahydro-4H-pyrazolo[1,5-a][1,3]diazepin-6-yl)-1H-1,2,4-triazole-3-carboxamide], the Ki under setting [2] was determined as 0.0245 µM.
As to `CN1C(=O)[C@@H](NC(=O)c2ncn(Cc3ccccc3)n2)CCn2nc(CCN3CC4CC3CO4)cc21` (stereo partly drawn) [Example 761, 1-benzyl-N-[(6S)-4-methyl-2-[2-(2-oxa-5-azabicyclo[2.2.1]heptan-5-yl)ethyl]-5-oxo-7,8-dihydro-6H-pyrazolo[1,5-a][1,3]diazepin-6-yl]-1,2,4-triazole-3-carboxamide], under setting [4], the Ki was found to be 0.159 µM.
For `CN1C(=O)[C@H](NC(=O)c2ncn(Cc3ccc(F)cc3F)n2)CCn2nc(C3CC3)cc21` [Example 298, (R)—N-(2-cyclopropyl-4-methyl-5-oxo-5,6,7,8-tetrahydro-4H-pyrazolo[1,5-a][1,3]diazepin-6-yl)-1-(2,4-difluorobenzyl)-1H-1,2,4-triazole-3-carboxamide], under setting [3], the Ki was 2.56 µM.
On to `CN1C(=O)[C@@H](NC(=O)c2n[nH]c3c2C[C@H](C(C)(C)C)CC3)COc2ccccc21` [Example 61, (R)-5-(tert-butyl)-N-((S)-5-methyl-4-oxo-2,3,4,5-tetrahydrobenzo[b][1,4]oxazepin-3-yl)-4,5,6,7-tetrahydro-1H-indazole-3-carboxamide], for which the Ki (read-out: RIP1 Ki) is 0.048 µM.
In the case of `CN1C(=O)[C@@H](NC(=O)c2ncn(Cc3ccc(F)cc3F)n2)CCn2nccc21` (racemic) [Example 340, 1-[(2,4-difluorophenyl)methyl]-N-[rac-(6S)-4-methyl-5-oxo-7,8-dihydro-6H-pyrazolo[1,5-a][1,3]diazepin-6-yl]-1,2,4-triazole-3-carboxamide], under setting [1], the Ki was found to be 0.0128 µM.
Turning to `COC1CN(CCc2cc3n(n2)CC[C@H](NC(=O)c2ncn(Cc4ccccc4)n2)C(=O)N3C)C1` [Example 757], under setting [4], the Ki is 0.168 µM.
On to `Cc1cc2n(n1)CC[C@H](NC(=O)c1cc3c(cn1)COC3(C)C1CC1)C(=O)N2C` (stereo partly drawn) [Example 287, 1-cyclopropyl-N—((S)-2,4-dimethyl-5-oxo-5,6,7,8-tetrahydro-4H-pyrazolo[1,5-a][1,3]diazepin-6-yl)-1-methyl-1,3-dihydrofuro[3,4-c]pyridine-6-carboxamide], for which the Ki under setting [3] stood at 1.4 µM.
For the compound `CN1C(=O)[C@@H](NC(=O)c2ncc3c(n2)[C@]2(CCCOC2)OC3)COc2ccccc21` (racemic) [Example 696, rac-(75)-N-[rac-(3S)-5-methyl-4-oxo-2,3-dihydro-1,5-benzoxazepin-3-yl]spiro[5H-furo[3,4-d]pyrimidine-7,3′-tetrahydropyran]-2-carboxamide], the Ki under setting [1] is 0.12 µM.
Turning to `O=C(N[C@H]1CCc2cc(F)cc(F)c2NC1=O)c1nc2n(n1)[C@@H](c1ccccc1)CC2` [Example 622, (5R)-5-phenyl-N-[(3S)-7,9-difluoro-2-oxo-1,3,4,5-tetrahydro-1-benzazepin-3-yl]-6,7-dihydro-5H-pyrrolo[1,2-b][1,2,4]triazole-2-carboxamide], the Ki under setting [1] is 0.005 µM.
Still for that read-out and setting: the same measure for `CN1C(=O)[C@@H](NC(=O)c2ncn(CC3CCCCO3)n2)CCn2nc(C3CC3)cc21` (stereo partly shown) [Example 477]: 0.29 µM.
As for `Cc1cc2n(n1)CC[C@H](NC(=O)c1ncn(Cc3ccccc3C#N)n1)C(=O)N2C` [Example 590, 1-[(2-cyanophenyl)methyl]-N-(6S)-2,4-dimethyl-5-oxo-7,8-dihydro-6H-pyrazolo[1,5-a][1, 3]diazepin-6-yl-1,2,4-triazole-3-carboxamide], under setting [1], the Ki worked out at 0.7 µM.
`CN1C(=O)[C@@H](NC(=O)c2ncn(Cc3cc(F)ccc3F)n2)CCn2ccnc21` [Example 506, 1-[(2,5-difluorophenyl)methyl]-N-[(7S)-9-methyl-8-oxo-6,7-dihydro-5H-imidazo[1,2-a][1,3]diazepin-7-yl]-1,2,4-triazole-3-carboxamide]: under setting [1], the Ki was 0.019 µM.
For `CN1C(=O)C(NC(=O)c2nnc(Cc3cccc(F)c3F)[nH]2)CCCn2nccc21` (stereo not shown) [Example 97, 5-(2,3-difluorobenzyl)-N-(4-methyl-5-oxo-4,5,6,7,8,9-hexahydropyrazolo[1,5-a][1,3]diazocin-6-yl)-4H-1,2,4-triazole-3-carboxamide], the Ki under setting [2] was determined as 0.215 µM.
`CN1C(=O)[C@@H](NC(=O)c2nc3n(n2)CCO[C@H]3c2ccccc2)COc2ccccc21` (racemic) [Example 695, rac-(8S)-8-phenyl-N-[rac-(3S)-5-methyl-4-oxo-2,3-dihydro-1,5-benzoxazepin-3-yl]-6,8-dihydro-5H-[1,2,4] triazolo[5,1-c][1,4]oxazine-2-carboxamide]: the Ki under setting [1] worked out at 0.694 µM.
Same read-out and setting: in the case of `Cc1ccccc1Cn1cnc(C(=O)N[C@H]2CCn3nc(C4CC4)cc3N(C)C2=O)n1` [Example 604] it was 0.021 µM.
`CN1C(=O)[C@@H](NC(=O)c2cn3c(C(F)(F)F)cccc3n2)COc2ccccc21` (single isomer, unassigned) [Example 736] yielded a Ki (Ki) of 0.07 µM.
For the compound `CC(C)(C)C1CCc2[nH]nc(C(=O)N[C@H]3CCc4cc(Cl)ccc4NC3=O)c2C1` (stereo partly drawn) [Example 47, 5-(tert-butyl)-N-((S)-7-chloro-2-oxo-2,3,4,5-tetrahydro-1H-benzo[b]azepin-3-yl)-4,5,6,7-tetrahydro-1H-indazole-3-carboxamide], the Ki (Table 1, apparent Ki (Morrison tight-binding fit), 50 nM RIP1 kinase domain, 50 uM ATP, 2 hours incubation, read-out: RIP1 Ki) turned out to be 0.35 µM.
Turning to `CN1C(=O)[C@@H](NC(=O)c2nc3n(n2)[C@H](c2ccccc2)CC3)CCn2nccc21` (single isomer, unassigned) [Example 614], the Ki under setting [1] turned out to be 0.79 µM.
In the case of `CN1C(=O)[C@@H](NC(=O)c2n[nH]c3ccc(C4CC4)cc23)COc2ccccc21` [Example 92, (S)-5-cyclopropyl-N-(5-methyl-4-oxo-2,3,4,5-tetrahydrobenzo[b][1,4]oxazepin-3-yl)-1H-indazole-3-carboxamide], the Ki under setting [2] came to 0.0129 µM.
For the compound `CCOc1ccc2[nH]nc(C(=O)N[C@H]3COc4ccccc4N(C)C3=O)c2n1` [Example 138, 5-ethoxy-N-[(3S)-5-methyl-4-oxo-2,3-dihydro-1,5-benzoxazepin-3-yl]-1H-pyrazolo[4,3-b]pyridine-3-carboxamide], the Ki under setting [2] came out at 3.7 µM.
On the same count and under the same terms, in the case of `CN1C(=O)[C@@H](NC(=O)c2nnc3ccc(C4CC4)cn23)COc2ccccc21` [Example 84, (S)-6-cyclopropyl-N-(5-methyl-4-oxo-2,3,4,5-tetrahydrobenzo[b][1,4]oxazepin-3-yl)-[1,2,4]triazolo[4,3-a]pyridine-3-carboxamide] it was 1.4 µM.
Consider `C[C@@]1(C(F)(F)F)OCc2cnc(C(=O)N[C@H]3CCc4cc(F)cc(F)c4NC3=O)nc21` [Example 749, (7R)-7-methyl-N-[(3S)-7,9-difluoro-2-oxo-1,3,4,5-tetrahydro-1-benzazepin-3-yl]-7-(trifluoromethyl)-5H-furo[3,4-d]pyrimidine-2-carboxamide], for which the Ki under setting [4] is 0.012 µM.
On to `CN1C(=O)[C@@H](NC(=O)c2ncn3cnc(C(F)(F)F)cc23)COc2ccccc21` [Example 230, (S)—N-(5-methyl-4-oxo-2,3,4,5-tetrahydrobenzo[b][1,4]oxazepin-3-yl)-7-(trifluoromethyl) imidazo[1,5-c]pyrimidine-1-carboxamide], for which, under setting [3], the Ki worked out at 0.0217 µM.
Take `CN1C(=O)[C@@H](NC(=O)c2ncn(Cc3ccccc3)n2)CCn2nc(C(F)(F)F)cc21` [Example 91, (S)-1-benzyl-N-(4-methyl-5-oxo-2-(trifluoromethyl)-5,6,7,8-tetrahydro-4H-pyrazolo[1,5-a][1,3]diazepin-6-yl)-1H-1,2,4-triazole-3-carboxamide]: the Ki under setting [2] turned out to be 0.0271 µM.
